Source: PMC9944328 (Nature Communications, 2023)

Molecular target: SSTR2 (Homo sapiens, UniProt P30874)
Assay: SSTRs Gi-mediated cAMP inhibition, GloSensor, HEK293, 5 μM forskolin, 15 min room temperature (SSTR2 wild-type);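 for Bottom (best-fit value): normalized to the maximal wild-type response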;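 for Bottom (best-fit): normalized to the maximal wild-type response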;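 for Span (best-fit value): normalized to the maximal wild-type response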;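 for Span (best-fit): normalized to the maximal wild-type response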;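 for Top (best-fit value): normalized to the maximal wild-type response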;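 for Top (best-fit): normalized to the maximal wild-type response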
Type: cell-based
Design: Best-fit Top, cAMP inhibition / Span, cAMP inhibition / Best-fit Bottom / Best-fit Top / Best-fit Span / Bottom / Span (best-fit value), cAMP inhibition / Top (best-fit value), cAMP inhibition: scale not given here
Method: The levels of the intracellular 3′, 5′-cyclic AMP (cAMP) were measured by the GloSensor cAMP assay (Promega) as described in the previous studies[28],[41] which has been widely used. The human full-length SSTRs and mutants were cloned into the pcDNA3.1+ vector with a HA signal sequence followed by a Flag tag at the N-terminus. HEK293 cells (ATCC, CRL-1573) were seeded into 6-well microplates at a density of 1.0 × 10^6 cells/well and cultured for 24 h at 37 °C with 5% CO2. Cells were then co-transfected with SSTR wild-type or mutants and GloSensor plasmids. After 24 h of transfection, the cells were dissociated with TrypLE™ Express Enzyme (1X) (Thermo Fisher Scientific) and collected by centrifugation at 500 × g for 5 min. Then the collected cells were suspended in Hank’s balanced salt solution [HBSS (Thermo Fisher Scientific)] supplemented with […] (YEASEN), and then the suspension cells were seeded into 96-well plates with 90 μl/well. After incubating at room temperature for 40 min, 5 μM forskolin and ligands diluted in HBSS were added to each well and the plates were incubated at room temperature for 15 min. […] were measured using the Synergy H1 microplate reader (BioTek) and the data presented are means of at least three independent experiments.

Sequence of SSTR2 (P30874 whole entry): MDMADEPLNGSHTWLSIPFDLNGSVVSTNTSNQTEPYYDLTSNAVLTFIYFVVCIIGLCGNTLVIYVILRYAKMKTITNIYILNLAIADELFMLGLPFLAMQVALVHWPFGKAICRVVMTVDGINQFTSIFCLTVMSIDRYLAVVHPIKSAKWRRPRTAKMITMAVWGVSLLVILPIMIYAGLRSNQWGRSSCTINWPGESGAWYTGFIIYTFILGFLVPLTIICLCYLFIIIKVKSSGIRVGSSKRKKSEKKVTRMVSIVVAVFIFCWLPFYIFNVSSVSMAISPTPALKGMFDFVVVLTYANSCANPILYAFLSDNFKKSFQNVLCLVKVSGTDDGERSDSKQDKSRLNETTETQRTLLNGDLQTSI

C[C@@H](O)[C@@H]1NC(=O)[C@H](CCCCN)NC(=O)[C@@H](Cc2c[nH]c3ccccc23)NC(=O)[C@H](Cc2ccccc2)NC(=O)[C@@H](NC(=O)[C@H](N)Cc2ccccc2)CSSC[C@@H](C(=O)N[C@H](CO)[C@@H](C)O)NC1=O [octreotide]
Emax (HEK293, Gi signaling, SSTR2 WT, n=6, read-out: Emax): 100% | Activation potency level (SSTR2, Fig. 1): nanomolar level | Bottom (best-fit value) (WT-1, run 1, batch of I284A): 6.42 | Span (best-fit value) (WT-1, run 1, batch of I284A): 102.3 | Top (best-fit value) (WT-1, run 1, batch of I284A): 108.8 | Bottom (best-fit value) (WT-1, run 1, batch of P286A): 0.4925 | Span (best-fit value) (WT-1, run 1, batch of P286A): 108.4 | Top (best-fit value) (WT-1, run 1, batch of P286A): 108.9 | Bottom (best-fit value) (WT-1, run 1, batch of S285A): -1.909 | Span (best-fit value) (WT-1, run 1, batch of S285A): 108.3 | Top (best-fit value) (WT-1, run 1, batch of S285A): 106.4 | Bottom (best-fit value) (WT-1, run 1, batch of T194A): 5.269 | Bottom (best-fit value) (WT-1, run 1, batch of T287A): 5.269 | Span (best-fit value) (WT-1, run 1, batch of T287A): 95.18 | Top (best-fit value) (WT-1, run 1, batch of T287A): 100.5 | LogEC50 (best-fit value) (WT-1, run 1, batch of W188A): -10.06 | Span (best-fit value) (WT-1, run 1, batch of W188A): 114.6 | Top (best-fit value) (WT-1, run 1, batch of W188A): 120.5 | Best-fit Bottom (WT-1 of D295A set): -0.7512 | Best-fit Span (WT-1 of D295A set): 96.76 | Best-fit Top (WT-1 of D295A set): 96 | Span (best-fit) (WT-1 of F208A set): 95.18 | Bottom (best-fit) (WT-1 of F265A set): 9.705 | Top (best-fit) (WT-1 of F265A set): 105 | Bottom (best-fit) (WT-1 of F272A set): 5.108 | Span (best-fit) (WT-1 of F272A set): 89.16 | Top (best-fit) (WT-1 of F272A set): 94.27 | Best-fit Bottom (WT-1 of F294A set): 5.269 | Best-fit Span (WT-1 of F294A set): 95.18 | Best-fit Top (WT-1 of F294A set): 100.5 | Best-fit Bottom (WT-1 of K291A set): 7.96 | Best-fit Span (WT-1 of K291A set): 79.36 | Best-fit Top (WT-1 of K291A set): 87.32 | Best-fit Bottom (WT-1 of L290A set): -1.909 | Best-fit Span (WT-1 of L290A set): 108.3 | Best-fit Top (WT-1 of L290A set): 106.4 | Bottom (best-fit) (WT-1 of N276A set): 7.96 | Span (best-fit) (WT-1 of N276A set): 79.36 | Top (best-fit) (WT-1 of N276A set): 87.32 | Bottom (best-fit) (WT-1 of P220A set): 21.28 | Span (best-fit) (WT-1 of P220A set): 73.55 | Top (best-fit) (WT-1 of P220A set): 94.83 | Best-fit Bottom (WT-1 of S279A set): 5.108 | Best-fit Span (WT-1 of S279A set): 89.16 | Best-fit Top (WT-1 of S279A set): 94.27 | Bottom (best-fit) (WT-1 of W269A set): 6.42 | Span (best-fit) (WT-1 of W269A set): 102.3 | Top (best-fit) (WT-1 of W269A set): 108.8 | Best-fit Bottom (WT-1 of Y302A set): 6.42 | Best-fit Span (WT-1 of Y302A set): 102.3 | Best-fit Top (WT-1 of Y302A set): 108.8 | Bottom (best-fit value) (WT-2, run 2, batch of I284A): -0.5171 | Span (best-fit value) (WT-2, run 2, batch of I284A): 111.1 | Top (best-fit value) (WT-2, run 2, batch of I284A): 110.6 | Bottom (best-fit value) (WT-2, run 2, batch of P286A): 4.88 | LogEC50 (best-fit value) (WT-2, run 2, batch of P286A): -10.01 | Span (best-fit value) (WT-2, run 2, batch of P286A): 102.3 | Top (best-fit value) (WT-2, run 2, batch of P286A): 107.2 | Bottom (best-fit value) (WT-2, run 2, batch of S285A): 5.269 | Span (best-fit value) (WT-2, run 2, batch of S285A): 95.18 | Top (best-fit value) (WT-2, run 2, batch of S285A): 100.5 | Bottom (best-fit value) (WT-2, run 2, batch of T194A): 2.714 | Bottom (best-fit value) (WT-2, run 2, batch of T287A): -7.526 | Span (best-fit value) (WT-2, run 2, batch of T287A): 120.1 | Top (best-fit value) (WT-2, run 2, batch of T287A): 112.6 | Bottom (best-fit value) (WT-2, run 2, batch of W188A): 4.88 | LogEC50 (best-fit value) (WT-2, run 2, batch of W188A): -10.01 | Span (best-fit value) (WT-2, run 2, batch of W188A): 102.3 | Top (best-fit value) (WT-2, run 2, batch of W188A): 107.2 | Best-fit Bottom (WT-2 of D295A set): -0.7512 | Best-fit Span (WT-2 of D295A set): 96.76 | Best-fit Top (WT-2 of D295A set): 96 | Span (best-fit) (WT-2 of F208A set): 79.83 | Bottom (best-fit) (WT-2 of F265A set): 21.28 | Span (best-fit) (WT-2 of F265A set): 73.55 | Top (best-fit) (WT-2 of F265A set): 94.83 | Bottom (best-fit) (WT-2 of F272A set): 5.269 | Span (best-fit) (WT-2 of F272A set): 95.18 | Top (best-fit) (WT-2 of F272A set): 100.5 | Best-fit Bottom (WT-2 of F294A set): 2.714 | Best-fit Span (WT-2 of F294A set): 101.1 | Best-fit Top (WT-2 of F294A set): 103.8 | Best-fit Bottom (WT-2 of K291A set): 0.9124 | Best-fit Span (WT-2 of K291A set): 101.5
